In brackets after ≈: the same amount, converted by molar mass. Like-named read-outs stand apart in the source and are kept apart here.
What was measured:
Experiment in all cases: MIC determination by in vitro antifungal assay
Format in all cases: cell-based
[1] = tested on: Aspergillus flavus ATCC MYA-3631 (O); settings: strain O = A. flavus ATCC MYA-3631
In short: (§1)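 Broth microdilution following CLSI M27-A3/M38-A2 with minor modifications, in RPMI 1640 buffered to pH 7.0 with 0.165 M MOPS. Yeast inoculum came from an overnight YPD culture, set to OD600 0.12 (˜1×10^6 CFU/mL) and then diluted 1:100. Compounds were tested in two-fold dilutions at 0.06-31.3 μg/mL for 48 h at 35° C.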

[2] = tested on: Aspergillus terreus ATCC MYA-3633 (N); settings: strain N = A. terreus ATCC MYA-3633
In short: as §1

[3] = tested on: Cryptococcus neoformans ATCC MYA-895 (M); settings: strain M = C. neoformans ATCC MYA-895
In short: (§2)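 Broth microdilution following CLSI M27-A3/M38-A2 with modifications, in RPMI 1640 buffered to pH 7.0 with 0.165 M MOPS. Yeast inoculum adjusted to OD600 0.12 and diluted 1:100. Compounds tested at 0.06–31.3 μg/mL by double dilution; incubation 48 h at 35° C.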

[4] = tested on: Aspergillus nidulans ATCC 38163 (P)
In short: as §1

[5] = tested on: Candida krusei ATCC 6258 (I)
In short: as §2

[6] = tested on: Candida glabrata ATCC 2001 (H); settings: ATCC 2001 in text
In short: as §2

[7] = tested on: Candida parapsilosis ATCC 22019 (J)
In short: as §2

[8] = strain P = A. nidulans ATCC 38163
[9] = strain H = C. glabrata ATCC 2004 (footnote)
[10] = strain J = C. parapsilosis ATCC 22019
[11] = Aspergillus flavus, read-out: MIC
[12] = Aspergillus terreus, read-out: MIC
[13] = Cryptococcus neoformans, read-out: MIC
[14] = Aspergillus nidulans, ATCC38163, strain P = A. nidulans ATCC 38163, read-out: MIC
[15] = Pichia kudriavzevii, ATCC6258, strain I = C. krusei ATCC 6258, read-out: MIC
[16] = Nakaseomyces glabratus, ATCC 2001 / ATCC 2004, strain H = C. glabrata ATCC 2004 (footnote), read-out: MIC
[17] = Lodderomyces parapsilosis, ATCC22019, strain J = C. parapsilosis ATCC 22019, read-out: MIC

SMILES | MIC [1] [μg/mL^−1] | MIC [2] [μg/mL^−1] | MIC [3] [μg/mL^−1] | MIC [4, 8] [μg/mL^−1] | MIC ([5]; strain I = C. krusei ATCC 6258) [μg/mL^−1] | MIC [6, 9] [μg/mL^−1] | MIC [7, 10] [μg/mL^−1] | MIC [1, 11] [µg/mL] | MIC [2, 12] [µg/mL] | MIC [3, 13] [µg/mL] | MIC [4, 14] [µg/mL] | MIC [5, 15] [µg/mL] | MIC [6, 16] [µg/mL] | MIC [7, 17] [µg/mL]
O=C(NNc1cccc(F)c1)c1ccc(Br)cn1 [Compound 4a] | 15.6 | 0.98 | 0.06 | 1.95 | 0.24 | >31.3 | 7.8 | – | – | – | – | – | – | –
COc1cccc(NNC(=O)c2ccc(Br)cn2)c1 [Compound 4c] | – | – | – | – | – | – | – | > 31.3 | 3.9 (≈ 12.1 µM) | 0.49 (≈ 1.52 µM) | 1.95 (≈ 6.05 µM) | 0.24 (≈ 0.745 µM) | 15.6 (≈ 48.4 µM) | 3.9 (≈ 12.1 µM)
O=C(NNc1ccc(F)cc1)c1ccc(Br)cn1 [Compound 4d] | – | – | – | – | – | – | – | 15.6 (≈ 50.3 µM) | 7.8 (≈ 25.2 µM) | 0.98 (≈ 3.16 µM) | 1.95 (≈ 6.29 µM) | 0.98 (≈ 3.16 µM) | > 31.3 | 7.8 (≈ 25.2 µM)
COc1ccc(NNC(=O)c2ccc(Br)cn2)cc1 [Compound 4f] | – | – | – | – | – | – | – | > 31.3 | 7.8 (≈ 24.2 µM) | 1.95 (≈ 6.05 µM) | 15.6 (≈ 48.4 µM) | 0.98 (≈ 3.04 µM) | 1.95 (≈ 6.05 µM) | 3.9 (≈ 12.1 µM)
O=C(NNc1ccc(F)cc1F)c1ccc(Br)cn1 [Compound 4g] | – | – | – | – | – | – | – | > 31.3 | 3.9 (≈ 11.9 µM) | 1.95 (≈ 5.94 µM) | 3.9 (≈ 11.9 µM) | 0.49 (≈ 1.49 µM) | 7.8 (≈ 23.8 µM) | 3.9 (≈ 11.9 µM)
O=C(NNc1cccc(F)c1)c1cccc(F)n1 [Compound 5a] | >31.3 | 1.95 | ≤0.06 | 0.98 | 0.24 | 31.3 | 7.8 | – | – | – | – | – | – | –
O=C(NNc1ccc(F)cc1)c1cccc(F)n1 [Compound 5d] | – | – | – | – | – | – | – | 7.8 (≈ 31.3 µM) | 1.95 (≈ 7.82 µM) | 0.49 (≈ 1.97 µM) | 0.98 (≈ 3.93 µM) | 0.49 (≈ 1.97 µM) | 15.6 (≈ 62.6 µM) | 3.9 (≈ 15.6 µM)
O=C(NNc1ccc(Cl)cc1)c1cccc(F)n1 [Compound 5e] | >31.3 | 31.3 | 1.95 | 7.8 | 1.95 | 3.9 | 15.6 | – | – | – | – | – | – | –
COc1ccc(NNC(=O)c2cccc(F)n2)cc1 [Compound 5f] | – | – | – | – | – | – | – | > 31.3 | 15.6 (≈ 59.7 µM) | 0.24 (≈ 0.919 µM) | 1.95 (≈ 7.46 µM) | 0.49 (≈ 1.88 µM) | 0.98 (≈ 3.75 µM) | 7.8 (≈ 29.9 µM)
O=C(NNc1ccc(F)cc1F)c1cccc(F)n1 [Compound 5g] | – | – | – | – | – | – | – | 31.3 (≈ 117 µM) | 3.9 (≈ 14.6 µM) | 0.49 (≈ 1.83 µM) | 0.49 (≈ 1.83 µM) | 0.98 (≈ 3.67 µM) | 31.3 (≈ 117 µM) | 31.3 (≈ 117 µM)
O=C(NNc1cccc(F)c1)c1cccc(Br)n1 [Compound 6a] | 31.3 | 3.9 | ≤0.06 | 1.95 | 0.49 | >31.3 | 1.95 | – | – | – | – | – | – | –
O=C(NNc1ccc(F)cc1)c1cccc(Br)n1 [Compound 6d] | – | – | – | – | – | – | – | 15.6 (≈ 50.3 µM) | 3.9 (≈ 12.6 µM) | 0.98 (≈ 3.16 µM) | 0.98 (≈ 3.16 µM) | 0.49 (≈ 1.58 µM) | > 31.3 | 7.8 (≈ 25.2 µM)
COc1ccc(NNC(=O)c2cccc(Br)n2)cc1 [Compound 6f] | – | – | – | – | – | – | – | > 31.3 | 7.8 (≈ 24.2 µM) | 1.95 (≈ 6.05 µM) | 3.9 (≈ 12.1 µM) | 0.98 (≈ 3.04 µM) | 1.95 (≈ 6.05 µM) | 3.9 (≈ 12.1 µM)
O=C(NNc1cccc(F)c1)c1ncc(F)cc1F [Compound 7a] | >31.3 | 3.9 | ≤0.06 | 0.98 | 0.24 | 31.3 | 1.95 | – | – | – | – | – | – | –
COc1cccc(NNC(=O)c2ncc(F)cc2F)c1 [Compound 7c] | – | – | – | – | – | – | – | > 31.3 | 31.3 (≈ 112 µM) | 15.6 (≈ 55.9 µM) | 15.6 (≈ 55.9 µM) | 15.6 (≈ 55.9 µM) | 15.6 (≈ 55.9 µM) | 15.6 (≈ 55.9 µM)
O=C(NNc1ccc(F)cc1)c1ncc(F)cc1F [Compound 7d] | – | – | – | – | – | – | – | 7.8 (≈ 29.2 µM) | 3.9 (≈ 14.6 µM) | 0.49 (≈ 1.83 µM) | 0.49 (≈ 1.83 µM) | 0.49 (≈ 1.83 µM) | 15.6 (≈ 58.4 µM) | 3.9 (≈ 14.6 µM)
O=C(NNc1ccc(Cl)cc1)c1ncc(F)cc1F [Compound 7e] | >31.3 | >31.3 | 1.95 | 7.8 | 1.95 | 3.9 | 15.6 | – | – | – | – | – | – | –
COc1ccc(NNC(=O)c2ncc(F)cc2F)cc1 [Compound 7f] | – | – | – | – | – | – | – | > 31.3 | 31.3 (≈ 112 µM) | 1.95 (≈ 6.98 µM) | 1.95 (≈ 6.98 µM) | 0.98 (≈ 3.51 µM) | 7.8 (≈ 27.9 µM) | 7.8 (≈ 27.9 µM)
O=C(NNc1ccc(F)cc1F)c1ncc(F)cc1F [Compound 7g] | – | – | – | – | – | – | – | > 31.3 | 7.8 (≈ 27.3 µM) | 0.98 (≈ 3.44 µM) | 0.98 (≈ 3.44 µM) | 0.98 (≈ 3.44 µM) | > 31.3 | 31.3 (≈ 110 µM)
O=C(NNc1cccc(F)c1)c1nc(F)ccc1F [Compound 8a] | >31.3 | 3.9 | ≤0.06 | 1.95 | 0.49 | 15.6 | 7.8 | – | – | – | – | – | – | –

— patent US20240425464A1, “Substituted Monohydrazides as Potent Antifungal Agents” (University of Kentucky Research Foundation, priority 2023, published 2024)
